Measured values as given in article PMC11362529, “Exploring the neuroprotective potential of Nrf2-pathway activators against annonacin toxicity” (Scientific Reports, 2024).

Assays:
Type in all cases: cell-based, human
pThr-181 tau = assay: AT270 (pThr-181 tau) immunofluorescence; conditions: 48 h
Method: For immunostaining, cells were seeded in differentiation medium, on 24-well microplates containing PLO/FN-coated 13 mm Ø coverslips, and treated for 48 h as previously described. On the readout day, the medium was removed and cells were fixed, permeabilized and blocked as before. Primary antibody dilutions were made in 1.5% NHS in PBS (Supplementary Table S1) and incubated overnight at 4 °C. On the following day, the coverslips were washed three times with PBS and incubated with host-specific fluorescence secondary antibodies (Supplementary Table S1), for 2 h at RT, protected from light. After another three washes with PBS, cell nuclei were stained with 1:5,000 DAPI (4’,6-diamidino-2-phenylindole, Thermo Fisher Scientific) in PBS, for 15 min at RT. The coverslips were mounted in mowiol and left to dry for 24 h before imaging. Image acquisition for FI quantification was done with a 200 × magnification (20 × objective, 10 × intermediate magnification), or 400x (40 × objective, 10 × intermediate magnification) in the case of pSC-35 and AT8 immunostaining, on a fluorescence microscope Leica-DFC9000GTC (Leica). In the case of phospho-tau AT8, Z-stacks consisting of 18 plane images with a step size of 1 μm were acquired. The image acquisition parameters were identical for all conditions. Quantification of 8-OHdG (8-hydroxyguanosine) FI and tau species was performed using the ImageJ software. Ten-to-fifteen images per condition across triplicates, from different view fields, were used for this purpose. Briefly, TIFF exported images were submitted to background subtraction using the rolling ball method with a radius of 50 pixels. For 8-OHdG analysis, a channel-specific threshold was applied to all images to define the ROI and FI was measured and normalized to the cell number, determined by the DAPI channel. The average value of the different view fields per experimental condition was taken and reported as fold change compared to the control (DMSO-treated) condition. For the analysis of phospho-tau AT270 and pan-tau reactivity, channel specific thresholds were applied to all images. The DAPI channel was used to define nuclei from viable cells, by selecting particles with a size above 15 µm^2 and a circularity of 0.3–1.0. The obtained mask was submitted to “close” and “fill holes” processes to smooth the objects and fill in small holes, followed by nine “dilations” and one “watershed” to obtain a ROI covering exclusively the soma of viable cells. The obtained mask was combined with threshold images of phospho-tau AT270 and pan-tau in order to define the respective ROI of each tau species. These masks were used to quantify the number of somas expressing each of these tau species, as well as the respective FI. The number of AT270-positive somas was divided by the number of pan-tau-positive somas and expressed as a percentage. The AT270 FI was normalized to the pan-tau FI and the ratio presented as fold change relative to the control (DMSO-treated) condition. For quantification of pSC-35 and AT8 speckle number and FI, we used CellProfiler™ 4 (https://cellprofiler.org/, Broad Institute Inc., Cambridge, MA, USA) speckle counting pipeline. Twenty-to-thirty images per condition across triplicates were used for this purpose. ImageJ BIOP JACoP plugin was used for estimating co-localization of AT8 with DAPI-stained nuclei. Data were reported as fold change compared to the control (DMSO-treated) condition, or as Pearsonʹs coefficient values in case the of AT8 co-localization data.

HO-1 = HO-1 mRNA by RT-qPCR; conditions: 48 h
Method: (§1) LUHMES cells were seeded on PLO/FN coated 6-well microplates and the pharmacological treatments were performed as previously explained. The cells were washed in HBSS, prior to being collected for mRNA isolation (RNeasy® Plus Mini Kit, Qiagen, Venlo, Netherlands), following the manufacturer’s instructions. The mRNA concentrations were determined on a Nano-Drop 2000c (Thermo Fisher Scientific) and 1 µg of mRNA was reverse-transcribed into cDNA with the iScript™ Reverse Transcription Supermix for RT-qPCR Kit (Bio-Rad) on a thermal cycler (SensoQuest, Göttingen, Germany). Real-time PCR was performed using SYBR™ Select Master Mix for CFX (Thermo Fisher Scientific) with 30 ng cDNA and 0.4 µM of primers against the respective target genes (Supplementary Table S3), in a 20 µl total volume, on a CFX96 Touch™ Real-Time Cycler (Bio-Rad). The relative expression of mRNA was calculated using the CFX Manager software (ΔΔCt method) from Bio-Rad, and the Ct values of the target-genes were normalized to the reference genes RPL22 and UBQLN1. The data were reported as fold change relative to the control (DMSO-treated) condition.

NQO1 = NQO1 mRNA by RT-qPCR; conditions: 48 h
Method: as §1

LUHMES cells = assay: Mitochondrial activity by MTT reduction; conditions: 24 h; for MTT reduction: protective concentration of compound + 20 nM annonacin
Method: Mitochondrial activity was estimated by the reduction of MTT (3-(4,5-dimethylthiazol-2-yl)-2,5-diphenyltetrazolium, Sigma-Aldrich). Briefly, LUHMES cells were seeded on PLO/FN-coated 48-well microplates, in triplicates. After a 24 h treatment with 20 nM of annonacin and the protective concentrations of Nrf2-pathway activators in glucose-reduced medium, cells were incubated with 0.5 mg/ml of MTT dissolved in PBS, at 37 °C for 30 min. After that, the medium was removed and the plate was frozen at -80 °C for 1 h, for cell lysing. Next, the plate was thawed and the MTT crystals were completely dissolved in 250 µl of DMSO with vigorous shaking. The absorbance was measured on a FLUOstar® Omega plate reader at λ = 590 nm, using λ = 630 nm absorbance as a background correction. The obtained results were analyzed with the MARS data analysis software (BMG LabTech). After background subtraction, the data were expressed as a percentage of MTT reduction relative to the control (DMSO-treated) condition. Determination of cellular ATP levels was done by using the ViaLight™ plus kit (Lonza, Basel, Switzerland), following the manufacturer’s instructions. Cells were seeded on PLO/FN-coated 48-well microplates and the pharmacological treatments were done similarly as to the assessment of the MTT reduction. On the next day, the medium was removed and cells were washed once with warm HBSS and rested in 210 µl HBSS. The plate was left to reach RT before adding 70 µl cell lysis reagent to each well, provided by the kit. […] The plate was incubated in the dark for 10 min at RT before the luminescence signal was measured on a FLUOstar® Omega plate reader. The obtained results were analyzed with the MARS data analysis software (BMG LabTech) and expressed as RLUs. For background correction, the RLUs detected for the background control (i.e., 10 µl of ATP monitoring reagent plus combined with 10 µl of cell lysis reagent) were subtracted from the measured RLUs values of all testing conditions.

[1] = protective concentration of compound + 20 nM annonacin, vs annonacin
[2] = presence of 20 nM annonacin, vs DMSO control under annonacin
[3] = 20 nM annonacin alone (DMSO control condition) vs DMSO control without annonacin

**Q.** Which “pThr-181 tau (AT270) normalized to pan-tau, neuritic and somatic compartment” value (“pThr-181 tau (AT270) normalized” below) (pThr-181 tau; [1]) does the source give for Cn1c(Nc2nc3ccc(C(F)(F)F)cc3s2)nc2cc(C(=O)NCCOCCO)ccc21 [HPP-D] here?
**A.** The value was “attenuated annonacin-induced tau hyperphosphorylation”.

**Q.** And the “HO-1 mRNA expression” value (HO-1; absence of annonacin)?
**A.** Its value is 19 fold over DMSO control.

**Q.** What about the “HO-1 mRNA expression” value (HO-1; [2]) of the same molecule?
**A.** The value was “significantly rescued from this downregulation”.

**Q.** And the “NQO1 mRNA expression” value (NQO1; absence of annonacin)?
**A.** Its value is “fivefold”.

**Q.** C=CC(C)(C)c1cc(/C=C/C(=O)c2ccc(O)cc2)c(OC)cc1O [licochalcone A] was tested. Which “pThr-181 tau (AT270) normalized” value (pThr-181 tau; [1]) did it give?
**A.** Its value is “attenuated annonacin-induced tau hyperphosphorylation”.

**Q.** What about the “HO-1 mRNA expression” value (HO-1; [2]) of the same molecule?
**A.** Its value is “significantly rescued from this downregulation”.

**Q.** What about the MTT reduction (LUHMES cells) of the same molecule?
**A.** The MTT reduction was “further decreased the amount of MTT reduction”.

**Q.** And the “NQO1 mRNA expression” value (NQO1; absence of annonacin)?
**A.** The value was 2.5 fold over DMSO control.

**Q.** With O=C1[C@H](CC[C@H](O)c2ccc(F)cc2)[C@@H](c2ccc(O)cc2)N1c1ccc(F)cc1 [ezetimibe] as the molecule, how does the AT270-positive somas (pThr-181 tau; 15 μM ezetimibe + 20 nM annonacin) read?
**A.** Its AT270-positive somas is 75%.

**Q.** And the “pThr-181 tau (AT270) normalized” value (pThr-181 tau; [1])?
**A.** The value was “attenuated annonacin-induced tau hyperphosphorylation”.

**Q.** What about the “HO-1 mRNA expression” value (HO-1; absence of annonacin) of the same molecule?
**A.** Its value is “did not induce significant changes”.

**Q.** And the “HO-1 mRNA expression” value (HO-1; [2])?
**A.** Its value is “did not induce significant changes”.

**Q.** And the MTT reduction (LUHMES cells)?
**A.** The MTT reduction was “further decreased the amount of MTT reduction”.

**Q.** And the “NQO1 mRNA expression” value (NQO1; absence of annonacin)?
**A.** Its value is “did not induce significant changes”.

**Q.** What about the “NQO1 mRNA expression” value (NQO1; [2]) of the same molecule?
**A.** Its value is “did not induce significant changes”.

**Q.** How did the AT270-positive somas (pThr-181 tau; 20 nM annonacin alone) turn out when CCCCCCCCCCCC[C@@H](O)[C@H]1CC[C@H]([C@H](O)CCCC[C@H](O)CCCCC[C@@H](O)CC2=CC(C)OC2=O)O1 (stereo partly drawn) [annonacin] was run?
**A.** The AT270-positive somas was “more than 90%”.

**Q.** What about the “AT270 reactivity normalized to pan-tau, in the soma area” value (pThr-181 tau; 20 nM annonacin alone) of the same molecule?
**A.** Its value is 1.9 ratio.

**Q.** And the “pThr-181 tau (AT270) normalized” value (pThr-181 tau; 20 nM annonacin alone)?
**A.** Its value is 3.4 ratio.

**Q.** What about the “HO-1 mRNA expression” value (HO-1; [3]) of the same molecule?
**A.** The value was “downregulation of both target-genes”.

**Q.** What about the “decrease of reduced-MTT compared with healthy control cells” value (LUHMES cells; 20 nM annonacin alone) of the same molecule?
**A.** The value was 20%.

**Q.** And the “NQO1 mRNA expression” value (NQO1; [3])?
**A.** Its value is “downregulation of both target-genes”.
